Reference: patent US6603058B1, “Non-human animal model for obesity and uses thereof” (Oklahoma Medical Research Foundation, priority 1998, dated 2003)

Key:
Format in all cases: in vivo, mouse
[1] = Daily intraperitoneal MSH analog treatment of POMC homozygous mutant and wildtype female mice: body weight change and food intake; settings: for weight loss, share of excess weight: mutant female mice, 1 microgram (~1 nmol) i.p. daily; for weight loss in wildtype mice: wildtype non-obese littermates, peripheral (i.p.) daily treatment
Procedure: To initially test for the effect of peripheral melanocortins on weight change, we selected the stable agonist [Ac-Cys^4, D-Phe^7, Cys^10] αMSH (4-13)(described in Cody et al., 1985, J. Med. Chem. 28, 583-588; incorporated herein by reference in its entirety). Briefly, [Ac-Cys^4,D-Phe^7, Cys^10] α-MSH (4-13) amide was obtained from Peninsula Laboratories, CA. Lyophilized powder was dissolved in water at 1 mg/ml, which was diluted in PBS to 10 μg/mL. During the experiments, mice were maintained on a normal 12h/12h light/dark cycle with food and water ad libitum. Mice were fed standard laboratory rodent diet (#5001).
In order to see whether the α-MSH analog has an effect on food intake, we compared weight change and food intake in these mice for one week (see bars in FIGS. 4A and 4B) under MSH analog treatment and after MSH analog treatment was stopped (FIGS. 4C and 4D). During one week under MSH analog treatment mutant mice lost 0.5 g, while wildtype littermates gained 0.3 g; the food intake during this time was equivalent in both groups (20.7 g in wildtypes, and 22.7 g in mutants).

[2] = Coat pigmentation of mice treated with MSH for two weeks
Source text: An effect of MSH could also be seen on coat pigmentation. […] Yellow coat pigmentation gradually reappeared after MSH treatment was terminated (data not shown).

[3] = Weight change and food intake in wildtype and POMC null mutant mice under standard diet, standard diet plus MSH analog, or high fat diet; settings: for food intake, standard diet v. standard diet & MSH analog treatment / weight change, standard diet v. standard diet & MSH analog treatment: MSH analog i.p. 1 or 2 μg once daily
Procedure: P values were determined by ANOVA. If the major component of weight regulation through the melanocortinergic pathway was the regulation of feeding behavior, the observed changes in body weight in POMC null mutant mice should be paralleled by a similar pattern in food uptake. This, however, was not observed (FIGS. 5B and 5D and Table 1).

[4] = both on standard diet & MSH analog treatment

Substance: [Ac-Cys^4,D-Phe^7, Cys^10] α-MSH (4-13) amide [MSH analog]
- weight loss, share of excess weight ([1]; by 2 weeks): 46 % of excess weight
- weight loss, share of excess weight ([1]; within one week): 38 % of excess weight
- body weight gained in one week after MSH analog treatment had been stopped for two weeks ([1]; mutant mice): 1.7 g
- food intake during one week under MSH analog treatment ([1]; mutant mice): 22.7 g
- food intake in one week after MSH analog treatment had been stopped for two weeks ([1]; mutant mice): 35.7 g
- time after stop of MSH injections until mutant mice started to gain weight ([1]; mutant mice): about 10 days
- loss of excess weight after two weeks (summary statement) ([1]; mutant mice treated peripherally): over 40 % of excess weight
- body weight lost during one week under MSH analog treatment ([1]; mutant mice, second week of treatment): 0.5 g
- difference in food intake, mutants over wildtypes, after treatment stopped for two weeks ([1]; one week, p<0.005): 11.5 g
- body weight gained in one week after MSH analog treatment had been stopped for two weeks ([1]; wildtype littermates): 0.3 g
- body weight gained during one week under MSH analog treatment ([1]; wildtype littermates, second week of treatment): 0.3 g
- food intake during one week under MSH analog treatment ([1]; wildtype mice): 20.7 g
- food intake in one week after MSH analog treatment had been stopped for two weeks ([1]; wildtype mice): 24.2 g
- weight loss in wildtype mice ([1]; listed as MSH-agonist): no significant weight loss
- weight loss in wildtype mice ([1]; listed as stable α-MSH agonist): did not lose significant weight
- effect on coat pigmentation [2]: lost their yellowish tinge
- food intake, wildtype v. mutant [3, 4]: ↑
- weight change, wildtype v. mutant [3, 4]: ↓
- food intake, standard diet v. standard diet & MSH analog treatment ([3]; mutant mice): decreases food intake and ↓
- weight change, standard diet v. standard diet & MSH analog treatment ([3]; mutant mice): lose excess weight and ↓
- food intake, standard diet v. standard diet & MSH analog treatment ([3]; wildtype mice): decreases food intake and ↓
- weight change, standard diet v. standard diet & MSH analog treatment ([3]; wildtype mice): ←→
